Data from paper PMC6905855, “Agonist-specific voltage-dependent gating of lysosomal two-pore Na^+ channels” (eLife, 2019).
Where “and” joins values, the source holds several entries; their conditions need not be identical. Equal values may be shown once.

Legend:
[1] = molecular target: T1, surface-expressing mutant TPC2 channel (TPC2^LL/AA) in HEK293 cells (Homo sapiens, UniProt Q8NHX9, L11A/L12A); assay: Whole-cell recordings of ITPC2-LL/AA; type: cell-based; conditions: for voltage-dependent inactivation of ITPC2, I1s / 0s: @-140mV; for time course of LyNa-VA1.2-induced ITPC2: wc; for current density: whole cell recordings
T1 construct: expressed in transfected cells; host or cells: HEK293
Method in brief: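 HEK293 cells transiently expressing EGFP-tagged human TPC2 L11A/L12A, a plasma-membrane-targeted mutant, recorded 24–36 h post-transfection. Whole-cell patch clamp with fast perfusion of bath solutions; currents digitized at 10 kHz and filtered at 2 kHz.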

hTPC2 = molecular target: T2, hTPC2 (Homo sapiens, UniProt Q8NHX9); assay: Whole-endolysosome recordings of ITPC2; type: biochemical; conditions: for inactivation of ITPC2, I500ms / I10ms: @-120mV; for time course of LyNa-VA1.2-induced ITPC2: EL
T2 construct: expressed in transfected cells; host or cells: Cos1 and HEK293

hTPC1 = molecular target: T3, hTPC1 (Homo sapiens, UniProt Q9ULQ1); assay: Whole-endolysosome recordings of ITPC1; type: biochemical
T3 construct: expressed in transfected cells; host or cells: Cos1
Experimental: It was therefore of interest to explore whether TCAs/LyNa-VAs could also act on TPC1. To investigate this, we used two different voltage paradigms. […] Second, we used a tail current paradigm to measure the amplitude of the peak inward current at −120 mV following prolonged steps to various potentials (Figure 4E).
Figure 4. […] HP = 0 mV. […] Dotted lines in A indicate where the currents were measured. […] Data are presented as Mean ± S.E.M (n = 3 patches). […] (G) Normalized I-V plots of basal voltage-dependent currents in WT TPC1- and TPC1^R540I-transfected cells. […] Figure 4—source data 1. […] Figure 4—figure supplement 1. […] (A) A voltage protocol that elicited ITPC1 tail currents as shown in Figure 4E (from −140 to 100 mV with a ∆V = 20 mV, 1 s with a 10 s inter-step interval). Arrows indicate where tail currents were measured. (B) A voltage protocol that elicited ITPC1 tail currents as shown in C. […] HP = 0 mV. […] (A) Basal whole-endolysosome ITPC1 (left) or ITPC1-R540I (right) was elicited by voltage steps (−140 to +100 mV with ΔV = 20 mV) in the absence of PI(3,5)P2 in TPC1-transfected Cos1 cells ([She et al., 2019]). Tail currents were elicited at −120 mV. (B) The effects of PI(3,5)P2 (0.3 µM) on ITPC1 (left) and ITPC1-R540I (right) step currents. […] A preconditioning voltage (+80 mV, 0.1 s) was applied before voltage steps starting from −140 to 100 mV (0.5 s, ∆V = 20 mV).
All TPC1 and TPC2 mutants were generated with a site-directed mutagenesis kit (Qiagen) using EGFP- human TPC1 and TPC2 as the templates. All constructs were confirmed by DNA sequencing.
Whole-endolysosome recordings were performed on manually isolated enlarged endolysosomes ([Wang et al., 2012]). In brief, a patch pipette was pressed against a cell and quickly pulled away to slice the cell membrane. Enlarged endolysosomes were released into a dish and identified by monitoring EGFP-TPC1/2 or the mCherry-TPC1/2 fluorescence. After formation of a gigaseal between the patch pipette and the enlarged endolysosome, capacitance transients were compensated. Voltage steps of several hundred mVs with millisecond duration were then applied to break into the vacuolar membrane. The whole-endolysosome configuration was verified by the re-appearance of capacitance transients after break-in.
Data were collected using an Axopatch 200A patch clamp amplifier, Digidata 1440, and pClamp 10.2 software (Axon Instruments). Whole-endolysosome currents were digitized at 10 kHz and filtered at 2 kHz. All experiments were conducted at room temperature (21–23°C), and all recordings were analyzed with pClamp 10.2, and Origin 8.0 (OriginLab, Northampton, MA). The permeability to cations (relative to PNa) was estimated based on following equations ([Lewis, 1979]) and Erev measurement under bi-ionic conditions:(1) PX/PNa=γNa/γX{[Na^+]Luminal/[X^+]Cytoplasmic}{exp([…])} (2) PCa/PNa=γNa/γCa{[Na^+]Cytoplasmic/[4[Ca^2+]Luminal}{exp(ErevF/RT)}{1+exp(ErevF/RT)} where R, T, F, Erev, and γ are, respectively, the gas constant, absolute temperature, Faraday constant, reversal potential, and activity coefficient. The liquid junction potentials were measured and corrected as described ([Neher, 1992]).

[2] = whole cell, 200 µM, individual recordings
[3] = whole-cell, 200 µM, mean ± S.E.M
[4] = lysosome, 200 µM, individual recordings
[5] = whole-endolysosome, 200 µM, mean ± S.E.M

T1 sequence (Q8NHX9 whole entry L11A/L12A): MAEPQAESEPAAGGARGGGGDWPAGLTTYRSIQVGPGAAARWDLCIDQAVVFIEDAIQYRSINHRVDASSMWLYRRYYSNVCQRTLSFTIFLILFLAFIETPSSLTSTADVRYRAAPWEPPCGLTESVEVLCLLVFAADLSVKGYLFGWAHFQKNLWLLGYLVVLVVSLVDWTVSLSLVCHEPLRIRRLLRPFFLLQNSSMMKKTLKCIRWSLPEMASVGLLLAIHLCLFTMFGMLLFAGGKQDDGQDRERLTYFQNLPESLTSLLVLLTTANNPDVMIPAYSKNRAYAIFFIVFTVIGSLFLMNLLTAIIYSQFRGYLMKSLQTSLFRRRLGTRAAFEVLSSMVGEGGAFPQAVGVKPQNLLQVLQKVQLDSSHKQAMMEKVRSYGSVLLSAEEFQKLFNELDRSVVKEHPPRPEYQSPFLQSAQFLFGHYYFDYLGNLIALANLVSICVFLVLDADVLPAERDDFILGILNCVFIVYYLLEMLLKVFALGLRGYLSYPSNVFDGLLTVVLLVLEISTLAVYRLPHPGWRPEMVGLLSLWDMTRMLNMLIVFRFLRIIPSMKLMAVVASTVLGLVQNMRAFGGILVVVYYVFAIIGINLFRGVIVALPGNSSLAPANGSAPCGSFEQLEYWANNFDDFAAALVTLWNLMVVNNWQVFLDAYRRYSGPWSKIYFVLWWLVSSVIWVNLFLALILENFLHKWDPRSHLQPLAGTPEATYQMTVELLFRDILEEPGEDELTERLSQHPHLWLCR
T2 sequence (Q8NHX9 whole entry): as the sequence (Q8NHX9 whole entry L11A/L12A) above, with A11L, A12L counted along it

CNCCCN1c2ccccc2CCc2ccccc21 [LyNa-VA1.2, Desipramine]
voltage-dependent inactivation of ITPC2, I1s / 0s ([1]; whole-cell, individual recordings): 0.09192 and 0.1098 and 0.1458 | voltage-dependent inactivation of ITPC2, I1s / 0s ([1]; whole-cell, mean): 0.1158 | activation of whole-cell ITPC2-LL/AA (in words) ([1]; bath application, symmetric Na^+, 100 µM where stated): ITPC2 was evoked | time course of LyNa-VA1.2-induced ITPC2 ([1]; time 0 s): -0.02373 | time course of LyNa-VA1.2-induced ITPC2 ([1]; time 2 s): -0.02853 | time course of LyNa-VA1.2-induced ITPC2 ([1]; time 4 s): -0.024 | time course of LyNa-VA1.2-induced ITPC2 ([1]; time 6 s): -0.02111 | time course of LyNa-VA1.2-induced ITPC2 ([1]; time 8 s): -0.02193 | time course of LyNa-VA1.2-induced ITPC2 ([1]; time 10 s): -0.01987 | time course of LyNa-VA1.2-induced ITPC2 ([1]; time 12 s): -0.0181 | time course of LyNa-VA1.2-induced ITPC2 ([1]; time 14 s): -0.01154 | time course of LyNa-VA1.2-induced ITPC2 ([1]; time 16 s): -7.79E-04 | time course of LyNa-VA1.2-induced ITPC2 ([1]; time 18 s): -0.01449 | time course of LyNa-VA1.2-induced ITPC2 ([1]; time 20 s): -0.01685 | time course of LyNa-VA1.2-induced ITPC2 ([1]; time 22 s): -0.0503 | time course of LyNa-VA1.2-induced ITPC2 ([1]; time 24 s): -0.06829 | time course of LyNa-VA1.2-induced ITPC2 ([1]; time 26 s): -0.1356 | time course of LyNa-VA1.2-induced ITPC2 ([1]; time 28 s): -0.1797 | time course of LyNa-VA1.2-induced ITPC2 ([1]; time 30 s): -0.2005 | time course of LyNa-VA1.2-induced ITPC2 ([1]; time 32 s): -0.2805 | time course of LyNa-VA1.2-induced ITPC2 ([1]; time 34 s): -0.3854 | time course of LyNa-VA1.2-induced ITPC2 ([1]; time 36 s): -0.4381 | time course of LyNa-VA1.2-induced ITPC2 ([1]; time 38 s): -0.4224 | time course of LyNa-VA1.2-induced ITPC2 ([1]; time 40 s): -0.5193 | time course of LyNa-VA1.2-induced ITPC2 ([1]; time 42 s): -0.5569 | time course of LyNa-VA1.2-induced ITPC2 ([1]; time 44 s): -0.6324 | time course of LyNa-VA1.2-induced ITPC2 ([1]; time 46 s): -0.7257 | time course of LyNa-VA1.2-induced ITPC2 ([1]; time 48 s): -0.7464 | time course of LyNa-VA1.2-induced ITPC2 ([1]; time 50 s): -0.8325 | time course of LyNa-VA1.2-induced ITPC2 ([1]; time 52 s): -0.8418 | time course of LyNa-VA1.2-induced ITPC2 ([1]; time 54 s): -0.8932 | time course of LyNa-VA1.2-induced ITPC2 ([1]; time 56 s): -0.9277 | time course of LyNa-VA1.2-induced ITPC2 ([1]; time 58 s): -0.9561 | time course of LyNa-VA1.2-induced ITPC2 ([1]; time 60 s): -0.9666 | time course of LyNa-VA1.2-induced ITPC2 ([1]; time 62 s): -0.9966 | time course of LyNa-VA1.2-induced ITPC2 ([1]; time 64 s): -0.9748 | time course of LyNa-VA1.2-induced ITPC2 ([1]; time 66 s): -1.0004 | current density ([1]; 5 µM, individual recordings): 10.3471 pA/pF and 4.752 pA/pF and 3.368 pA/pF and 5.887 pA/pF | current density ([1]; 10 µM, individual recordings): 14.5785 pA/pF and 6.451 pA/pF and 2.849 pA/pF and 8.548 pA/pF | current density ([1]; 20 µM, individual recordings): 24.0331 pA/pF and 8.699 pA/pF and 7.085 pA/pF and 17.3826 pA/pF | current density ([1]; 50 µM, individual recordings): 89.8595 pA/pF and 25.0088 pA/pF and 25.4245 pA/pF and 76.3478 pA/pF | current density ([1]; 100 µM, individual recordings): 240.859 pA/pF and 94.6372 pA/pF and 96.3302 pA/pF and 256.8 pA/pF | current density ([1]; 200 µM, individual recordings): 297.455 pA/pF and 239.381 pA/pF and 181.434 pA/pF and 429.652 pA/pF | current density ([1]; 400 µM, individual recordings): 245.487 pA/pF and 193.066 pA/pF and 464.052 pA/pF | Latency of induced ITPC2 [1, 2]: 14 s and 12 s and 20 s | Time constant (τ) of induced ITPC2 [1, 2]: 55 s and 48 s and 30.1 s and 39.1 s | EC50 ([1]; whole-cell recordings at −140 mV, TPC2^LL/AA-transfected HEK293 cells, read-out: EC50): 87 ± 8 µM | latency of TPC2 activation [1, 3]: 15 ± 2 s | time constant (τ) of TPC2 activation [1, 3]: 43 ± 5 s | inactivation of ITPC2, I500ms / I10ms (hTPC2; PI(3,5)P2 0.3 µM, LyNa-VA1.2 100 µM, LyNA1 300 µM, individual tests): 0.6243 and 0.7434 and 0.4902 and 0.5999 and 0.6758 | inactivation of ITPC2, I500ms / I10ms (hTPC2; mean): 0.6267 | time course of LyNa-VA1.2-induced ITPC2 (hTPC2; time 0 s): -0.016 | time course of LyNa-VA1.2-induced ITPC2 (hTPC2; time 2 s): -0.01474 | time course of LyNa-VA1.2-induced ITPC2 (hTPC2; time 4 s): -0.01598 | time course of LyNa-VA1.2-induced ITPC2 (hTPC2; time 6 s): -0.00988 | time course of LyNa-VA1.2-induced ITPC2 (hTPC2; time 8 s): -0.00688 | time course of LyNa-VA1.2-induced ITPC2 (hTPC2; time 10 s): -0.02054 | time course of LyNa-VA1.2-induced ITPC2 (hTPC2; time 12 s): -0.02108 | time course of LyNa-VA1.2-induced ITPC2 (hTPC2; time 14 s): -0.1089 | time course of LyNa-VA1.2-induced ITPC2 (hTPC2; time 16 s): -0.1984 | time course of LyNa-VA1.2-induced ITPC2 (hTPC2; time 18 s): -0.2507 | time course of LyNa-VA1.2-induced ITPC2 (hTPC2; time 20 s): -0.3079 | time course of LyNa-VA1.2-induced ITPC2 (hTPC2; time 22 s): -0.5611 | time course of LyNa-VA1.2-induced ITPC2 (hTPC2; time 24 s): -0.7092 | time course of LyNa-VA1.2-induced ITPC2 (hTPC2; time 26 s): -0.8241 | time course of LyNa-VA1.2-induced ITPC2 (hTPC2; time 28 s): -0.8579 | time course of LyNa-VA1.2-induced ITPC2 (hTPC2; time 30 s): -0.8577 | time course of LyNa-VA1.2-induced ITPC2 (hTPC2; time 32 s): -0.9123 | time course of LyNa-VA1.2-induced ITPC2 (hTPC2; time 34 s): -1 | time course of LyNa-VA1.2-induced ITPC2 (hTPC2; time 36 s): -0.9719 | time course of LyNa-VA1.2-induced ITPC2 (hTPC2; time 38 s): -0.9923 | time course of LyNa-VA1.2-induced ITPC2 (hTPC2; time 40 s): -0.9868 | time course of LyNa-VA1.2-induced ITPC2 (hTPC2; time 42 s): -0.989 | Latency of induced ITPC2 (hTPC2; [4]): 6 s and 8 s and 10 s | Time constant (τ) of induced ITPC2 (hTPC2; [4]): 6.38 s and 6 s and 5.4 s | ITPC2 (hTPC2; whole endolysosome recordings with 100 µM of LyNa-VAs at −120 mV): 1120 ± 94 pA | latency of TPC2 activation (hTPC2; [5]): 7 ± 1 s | time constant (τ) of TPC2 activation (hTPC2; [5]): 8 ± 2 s | Dose-dependent activation of TPC1 (normalized ITPC1) (hTPC1; 3 µM, individual patches): 0.01236 and 0.1007 and 0.1129 | Dose-dependent activation of TPC1 (normalized ITPC1) (hTPC1; 3 µM, mean): 0.07532 | Dose-dependent activation of TPC1 (normalized ITPC1) (hTPC1; 10 µM, individual patches): 0.3905 and 0.6013 and 0.2982 | Dose-dependent activation of TPC1 (normalized ITPC1) (hTPC1; 10 µM, mean): 0.43 | Dose-dependent activation of TPC1 (normalized ITPC1) (hTPC1; 30 µM, individual patches): 0.9756 and 1 and 0.7567 | Dose-dependent activation of TPC1 (normalized ITPC1) (hTPC1; 30 µM, mean): 0.9108 | Dose-dependent activation of TPC1 (normalized ITPC1) (hTPC1; 100 µM, individual patches): 1 (2×) and 0.518 | Dose-dependent activation of TPC1 (normalized ITPC1) (hTPC1; 100 µM, mean): 0.8393 | Dose-dependent activation of TPC1 (normalized ITPC1) (hTPC1; 300 µM, individual patches): 0.9299 and 0.7273 | Dose-dependent activation of TPC1 (normalized ITPC1) (hTPC1; 300 µM, mean): 0.8286 | EC50 (hTPC1; whole-endolysosome, n = 3 patches, read-out: EC50, activation of TPC1): 10 ± 1 µM
